Assay results: the supplement of paper PMC10307832

How the values were obtained:
Test in all cases: relative viability (nuclei count vs DMSO), 5 days (fraction); higher = more cells survive
RERF-LC-KJ = test system: RERF-LC-KJ
Procedure, shortened: (§1)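 Relative viability is defined as nuclei in treated wells over nuclei in vehicle wells. Duplicate plates were run and medians reported. Lung cancer cell lines in 1536-well plates were dosed by pin tool one day after seeding, with one drug or with a fixed anchor-drug dose plus five library-drug doses (not always all listed) in √10 steps, and nuclei were counted after 5 days.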

SW 900 = test system: SW 900
Procedure, shortened: as §1

NCI-H1651 = test system: NCI-H1651
Procedure, shortened: as §1

NCI-H460 = test system: NCI-H460
Procedure, shortened: as §1

PC-14 = test system: PC-14
Procedure, shortened: as §1

LCLC-103H = test system: LCLC-103H
Procedure, shortened: as §1

COR-L23 = test system: COR-L23
Procedure, shortened: as §1

LCLC-97TM1 = test system: LCLC-97TM1
Procedure, shortened: as §1

NCI-H1650 = test system: NCI-H1650
Procedure, shortened: as §1

NCI-H1793 = test system: NCI-H1793
Procedure, shortened: as §1

SW 1573 = test system: SW 1573
Procedure, shortened: as §1

LK-2 = test system: LK-2
Procedure, shortened: as §1

NCI-H2347 = test system: NCI-H2347
Procedure, shortened: as §1

NCI-H650 = test system: NCI-H650
Procedure, shortened: as §1

NCI-H727 = test system: NCI-H727
Procedure, shortened: as §1

PC-3 [JPC-3] = test system: PC-3 [JPC-3]
Procedure, shortened: as §1

201T = test system: 201T
Procedure, shortened: as §1

A-427 = test system: A-427
Procedure, shortened: as §1

LU99A = test system: LU99A
Procedure, shortened: as §1

NCI-H23 = test system: NCI-H23
Procedure, shortened: as §1

H3255 = test system: H3255
Procedure, shortened: as §1

NCI-H838 = test system: NCI-H838
Procedure, shortened: as §1

NCI-H1944 = test system: NCI-H1944
Procedure, shortened: as §1

Clc1ccc(Nc2nnc(Cc3ccncc3)c3ccccc23)cc1 [Vatalanib] + CC(=O)c1c(C)c2cnc(Nc3ccc(N4CCNCC4)cn3)nc2n(C2CCCC2)c1=O [Palbociclib] (partner 0.5 µM)
relative viability (RERF-LC-KJ; first compound 0.04 µM): 1.08 | relative viability (RERF-LC-KJ; first compound 0.1265 µM): 1.05 | relative viability (RERF-LC-KJ; first compound 0.4 µM): 1.02 | relative viability (RERF-LC-KJ; first compound 1.265 µM): 1.02 | relative viability (RERF-LC-KJ; first compound 4 µM): 0.903 | relative viability (SW 900; first compound 0.04 µM): 0.504 | relative viability (SW 900; first compound 0.1265 µM): 0.523 | relative viability (SW 900; first compound 0.4 µM): 0.534 | relative viability (SW 900; first compound 1.265 µM): 0.614 | relative viability (SW 900; first compound 4 µM): 0.547 | relative viability (NCI-H1651; first compound 0.04 µM): 0.51 | relative viability (NCI-H1651; first compound 0.1265 µM): 0.496 | relative viability (NCI-H1651; first compound 0.4 µM): 0.479 | relative viability (NCI-H1651; first compound 1.265 µM): 0.532 | relative viability (NCI-H1651; first compound 4 µM): 0.513 | relative viability (NCI-H460; first compound 0.04 µM): 0.152 | relative viability (NCI-H460; first compound 0.1265 µM): 0.169 | relative viability (NCI-H460; first compound 0.4 µM): 0.211 | relative viability (NCI-H460; first compound 1.265 µM): 0.148 | relative viability (NCI-H460; first compound 4 µM): 0.0922 | relative viability (PC-14; first compound 0.04 µM): 0.523 | relative viability (PC-14; first compound 0.1265 µM): 0.492 | relative viability (PC-14; first compound 0.4 µM): 0.581 | relative viability (PC-14; first compound 1.265 µM): 0.473 | relative viability (PC-14; first compound 4 µM): 0.532 | relative viability (LCLC-103H; first compound 0.04 µM): 0.506 | relative viability (LCLC-103H; first compound 0.1265 µM): 0.452 | relative viability (LCLC-103H; first compound 0.4 µM): 0.503 | relative viability (LCLC-103H; first compound 1.265 µM): 0.443 | relative viability (LCLC-103H; first compound 4 µM): 0.513 | relative viability (COR-L23; first compound 0.04 µM): 0.364 | relative viability (COR-L23; first compound 0.1265 µM): 0.286 | relative viability (COR-L23; first compound 0.4 µM): 0.322 | relative viability (COR-L23; first compound 1.265 µM): 0.293 | relative viability (COR-L23; first compound 4 µM): 0.297 | relative viability (LCLC-97TM1; first compound 0.04 µM): 0.172 | relative viability (LCLC-97TM1; first compound 0.1265 µM): 0.252 | relative viability (LCLC-97TM1; first compound 0.4 µM): 0.194 | relative viability (LCLC-97TM1; first compound 1.265 µM): 0.247 | relative viability (LCLC-97TM1; first compound 4 µM): 0.21 | relative viability (NCI-H1650; first compound 0.04 µM): 0.364 | relative viability (NCI-H1650; first compound 0.1265 µM): 0.384 | relative viability (NCI-H1650; first compound 0.4 µM): 0.299 | relative viability (NCI-H1650; first compound 1.265 µM): 0.33 | relative viability (NCI-H1650; first compound 4 µM): 0.312 | relative viability (NCI-H1793; first compound 0.04 µM): 0.274 | relative viability (NCI-H1793; first compound 0.1265 µM): 0.262 | relative viability (NCI-H1793; first compound 0.4 µM): 0.324 | relative viability (NCI-H1793; first compound 1.265 µM): 0.285 | relative viability (NCI-H1793; first compound 4 µM): 0.319 | relative viability (SW 1573; first compound 0.1265 µM): 0.403 | relative viability (SW 1573; first compound 0.4 µM): 0.461 | relative viability (SW 1573; first compound 1.265 µM): 0.361 | relative viability (SW 1573; first compound 4 µM): 0.368 | relative viability (LK-2; first compound 0.04 µM): 0.41 | relative viability (LK-2; first compound 0.1265 µM): 0.694 | relative viability (LK-2; first compound 0.4 µM): 0.796 | relative viability (LK-2; first compound 1.265 µM): 0.762 | relative viability (LK-2; first compound 4 µM): 0.748 | relative viability (NCI-H2347; first compound 0.04 µM): 0.428 | relative viability (NCI-H2347; first compound 0.1265 µM): 0.423 | relative viability (NCI-H2347; first compound 0.4 µM): 0.494 | relative viability (NCI-H2347; first compound 1.265 µM): 0.418 | relative viability (NCI-H2347; first compound 4 µM): 0.446 | relative viability (NCI-H650; first compound 0.04 µM): 0.308 | relative viability (NCI-H650; first compound 0.1265 µM): 0.316 | relative viability (NCI-H650; first compound 0.4 µM): 0.298 | relative viability (NCI-H650; first compound 1.265 µM): 0.32 | relative viability (NCI-H650; first compound 4 µM): 0.32 | relative viability (NCI-H727; first compound 0.1265 µM): 0.611 | relative viability (NCI-H727; first compound 0.4 µM): 0.683 | relative viability (NCI-H727; first compound 1.265 µM): 0.66 | relative viability (NCI-H727; first compound 4 µM): 0.638 | relative viability (PC-3 [JPC-3]; first compound 0.04 µM): 0.515 | relative viability (PC-3 [JPC-3]; first compound 0.1265 µM): 0.549 | relative viability (PC-3 [JPC-3]; first compound 0.4 µM): 0.573 | relative viability (PC-3 [JPC-3]; first compound 1.265 µM): 0.538 | relative viability (PC-3 [JPC-3]; first compound 4 µM): 0.544 | relative viability (201T; first compound 0.04 µM): 0.777 | relative viability (201T; first compound 0.1265 µM): 0.344 | relative viability (201T; first compound 0.4 µM): 0.348 | relative viability (201T; first compound 1.265 µM): 0.341 | relative viability (201T; first compound 4 µM): 0.332 | relative viability (A-427; first compound 0.04 µM): 0.568 | relative viability (A-427; first compound 0.1265 µM): 0.482 | relative viability (A-427; first compound 0.4 µM): 0.546 | relative viability (A-427; first compound 4 µM): 0.508 | relative viability (LU99A; first compound 0.04 µM): 0.418 | relative viability (LU99A; first compound 0.1265 µM): 0.383 | relative viability (LU99A; first compound 0.4 µM): 0.435 | relative viability (LU99A; first compound 1.265 µM): 0.355 | relative viability (LU99A; first compound 4 µM): 0.415 | relative viability (NCI-H23; first compound 0.04 µM): 0.469 | relative viability (NCI-H23; first compound 0.1265 µM): 0.435 | relative viability (NCI-H23; first compound 0.4 µM): 0.533 | relative viability (NCI-H23; first compound 1.265 µM): 0.473 | relative viability (NCI-H23; first compound 4 µM): 0.468 | relative viability (H3255; first compound 0.04 µM): 0.308 | relative viability (H3255; first compound 0.1265 µM): 0.273 | relative viability (H3255; first compound 0.4 µM): 0.325 | relative viability (H3255; first compound 1.265 µM): 0.296 | relative viability (H3255; first compound 4 µM): 0.309 | relative viability (NCI-H838; first compound 0.04 µM): 0.227 | relative viability (NCI-H838; first compound 0.1265 µM): 0.235 | relative viability (NCI-H838; first compound 0.4 µM): 0.218 | relative viability (NCI-H838; first compound 1.265 µM): 0.203 | relative viability (NCI-H838; first compound 4 µM): 0.215 | relative viability (NCI-H1944; first compound 0.04 µM): 0.324 | relative viability (NCI-H1944; first compound 0.1265 µM): 0.301 | relative viability (NCI-H1944; first compound 0.4 µM): 0.364 | relative viability (NCI-H1944; first compound 1.265 µM): 0.29 | relative viability (NCI-H1944; first compound 4 µM): 0.319
